Measured values reported in PubChem BioAssay (NCI).
Values joined by “and” are separate entries in the source; they are usually repeats but may differ in a detail not shown here. Equal entries are not always repeated.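 The compound was tested at five concentrations on cells cultured in 96-well plates, with a 48-hour exposure period. Abbreviation: GI50, concentration required for 50% inhibition of growth. Definition used: TGI = concentration required for complete inhibition of growth.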

Assays:
Assay in all cases: NCI anticancer screen, dose series, 48 h
[1] = test system: HS 578T breast
[2] = test system: SK-OV-3 ovarian
[3] = test system: MDA-MB-435
[4] = test system: SK-MEL-28 melanoma
[5] = test system: NCI-H226 lung
[6] = test system: MDA-MB-231 breast
[7] = test system: UACC-62 melanoma
[8] = test system: SF-268 CNS
[9] = test system: ACHN renal
[10] = test system: SR leukemia

Row | Compound | GI50 [1] | TGI [1] | GI50 [2] | TGI [2] | GI50 [3] | TGI [3] | GI50 [4] | TGI [4] | GI50 [5] | TGI [5] | GI50 [6] | TGI [6] | GI50 [7] | TGI [7] | GI50 [8] | TGI [8] | GI50 [9] | TGI [9] | GI50 [10] | TGI [10]
1 | NC(=O)c1sc(-n2cnc3ccc(C(F)(F)F)cc32)cc1OCc1ccccc1Br | 4.22 µM | > 22.8 µM | 1.36 µM | 9.41 µM | 0.636 µM | 1.78 µM | 4.82 µM | > 25 µM | 1.94 µM | 18.6 µM | 1.62 µM | 19.3 µM | 1.38 µM | 17.9 µM | 1.32 µM | > 25 µM | 5.54 µM | > 25 µM | 0.907 µM | > 25 µM
2 | CCOC(=O)Cn1c(-c2nonc2NC(=O)c2ccccc2F)nc2ccccc21 | 32.4 µM | > 100 µM | 21.3 µM | > 100 µM | 2.25 µM | > 100 µM | 17.9 µM | > 100 µM | 19.5 µM | > 100 µM | 28.7 µM | > 100 µM | 5.86 µM | > 100 µM | 1.89 µM | > 100 µM | 5.05 µM | > 100 µM | 0.411 µM | > 100 µM
3 | Cc1ccc2nc3c(n2c1)C(=O)C(=O)c1ccccc1-3 | 0.213 µM | 0.618 µM | 1.01 µM | 2.47 µM | 0.0661 µM | 0.137 µM | 0.189 µM | 0.343 µM | 0.371 µM | 1.29 µM | 0.505 µM | 3.07 µM | 0.152 µM | 0.324 µM | 0.4 µM | 4.01 µM | 0.269 µM | 0.88 µM | 0.264 µM | 3.33 µM
4 | CCCCCCCCCCC[C@@H](C[C@H]1OC(=O)[C@H]1CCCCCC)OC(=O)[C@@H](CC(C)C)NC=O | 3.81 µM | 40.8 µM | 10.1 µM | 62.8 µM | 5.77 µM | 60.3 µM | 19.8 µM | > 100 µM | 2.1 µM | 7.91 µM | 1.53 µM | 5.45 µM | 4.95 µM | 25.2 µM | 2.31 µM | 21.9 µM | 8.63 µM | > 100 µM | 3.52 µM | 42.9 µM
5 | O=C(Nc1ccc(Oc2ccc(NC(=O)Nc3ccc([N+](=O)[O-])cc3)cc2)cc1)Nc1ccc([N+](=O)[O-])cc1 | 2.34 µM | 7.98 µM | 2.27 µM | 7.51 µM | 2.16 µM | 8.65 µM | 3.28 µM | 43.2 µM | 2.9 µM | 27.8 µM | 1.65 µM | 7.2 µM | 1.36 µM | 11.1 µM | 3.1 µM | > 100 µM | 1.92 µM | > 52.6 µM | 1.35 µM | 4.87 µM
6 | c1ccc2cc(C[n+]3ccn(Cc4ccc5ccccc5n4)c3)ccc2c1 | 1.25 µM and 4.49 µM | 12.2 µM and 20.3 µM | 0.671 µM and 3.64 µM | 4.3 µM and 17.7 µM | 0.312 µM and 2.46 µM | 1.31 µM and 10.6 µM | 0.325 µM and 2.78 µM | 1.35 µM and 13 µM | 1.06 µM and 4.51 µM | 4.87 µM and 21.6 µM | 0.432 µM and 2.22 µM | 1.97 µM and 8.2 µM | 0.374 µM and 1.91 µM | 1.5 µM and 5.94 µM | 0.434 µM and 3.79 µM | 11.3 µM and 18.3 µM | 5.54 µM | 18.5 µM | 0.364 µM and 2.82 µM | 2.16 µM and 13.7 µM
7 | O=C(NO)c1ccc(Cn2c(=O)n(-c3ccccc3)c(=O)c3ccccc32)cc1 | 1.6 µM | 9.43 µM | 1.3 µM | 3.17 µM | 0.531 µM | 1.77 µM | 0.519 µM | 2.93 µM | 1.32 µM | 2.91 µM | 1.63 µM | 5.16 µM | 0.482 µM | 2.16 µM | 1.38 µM | 4.52 µM | 1.67 µM | 6.37 µM | 1.68 µM | > 100 µM
8 | CC[C@H]1CN(C)[C@H]2Cc3c([nH]c4ccccc34)C(=O)C[C@H]1C2C(=O)OC (stereo partly specified) | – | > 100 µM | – | > 100 µM | – | > 100 µM | – | > 100 µM | – | > 100 µM | – | > 100 µM | – | > 100 µM | – | > 100 µM | – | > 100 µM | – | > 100 µM
9 | CCCCCCCCCCCC1=NC(C)(C)CN1CC(C)O (stereo unspecified) | 2.6 µM | 17.3 µM | 12.4 µM | 24.8 µM | 2.05 µM | 4.91 µM | 1.75 µM | 3.26 µM | 13.1 µM | 28.6 µM | 3.82 µM | 13.7 µM | 1.78 µM | 3.47 µM | 7.35 µM | 19.9 µM | 10 µM | 21.6 µM | 1.47 µM | 3.75 µM
10 | Oc1ccc2ccccc2c1N=Nc1ccc(Cl)cc1 | – | > 100 µM | – | > 100 µM | – | > 100 µM | – | > 100 µM | – | > 100 µM | – | > 100 µM | – | > 100 µM | – | > 100 µM | – | > 100 µM | – | > 100 µM
11 | COc1ccc(/C=N\NC(=O)c2ccc3nc(-c4ccc(Cl)cc4)[nH]c3c2)cc1 | 2.3 µM | 5.64 µM | 2.3 µM | 12.8 µM | 3.11 µM | 9.84 µM | 1.79 µM | 3.37 µM | 1.79 µM | 4.43 µM | 2.42 µM | 5.45 µM | 1.94 µM | 4.47 µM | 2.09 µM | 5.1 µM | 2 µM | 5.04 µM | 2.87 µM | 15.4 µM
12 | CC#CC#C/C=C1\C=CC2(OC=CC2OC(C)=O)O1 (stereo unspecified) | – | > 100 µM | – | > 100 µM | – | > 100 µM | 43.5 µM | > 100 µM | > 100 µM and 11.1 µM | > 100 µM and 23.4 µM | – | 41.9 µM | – | 52.3 µM and 33.2 µM | – | 85.4 µM and 46.1 µM | – | 33.9 µM | – | 89.6 µM and > 94.5 µM
13 | COc1cc2cnc(-c3ccccc3)cc2cc1OC | – | 53.8 µM | – | > 100 µM | – | 67.3 µM | – | > 100 µM | – | 45.8 µM | – | 48.2 µM | – | 23.4 µM | – | > 100 µM | – | 73.4 µM | – | 45.8 µM
14 | COc1ccc(C2=N[C@@H](c3ccc(Cl)cc3)[C@@H](c3ccc(Cl)cc3)N2C(=O)N2CCNC(=O)C2)c(OC(C)C)c1 | 15.6 µM and 17.3 µM and 17 µM | 44 µM and 56 µM and 49.3 µM | 16.8 µM and 15.9 µM and 15.4 µM | 30.8 µM and 30.9 µM and 30.4 µM | 14.2 µM and 13.6 µM and 16.1 µM | 27.9 µM and 27.5 µM and 33.3 µM | 15.8 µM and 15.3 µM and 16.5 µM | 30.8 µM and 29.6 µM and 32.2 µM | 13.7 µM and 1.57 µM and 1.56 µM | 30.2 µM and 6.83 µM and 5.86 µM | 17.2 µM and 13 µM and 14.8 µM | 38.4 µM and 27.1 µM and 29.6 µM | 11.3 µM and 2.76 µM and 1.38 µM | 25.3 µM and 19.2 µM and 16.6 µM | 13.9 µM and 13.1 µM and 14 µM | 28 µM and 26.5 µM and 27.9 µM | 14.6 µM and 3.61 µM and 3.8 µM | 29.4 µM and 15.1 µM and 16.1 µM | 11.7 µM and 2.07 µM and 1.19 µM | 36.5 µM and 23.9 µM and 17 µM
15 | COc1ccc(C(=O)/C=C/c2cc(-c3ccc4c(c3)OCO4)n[nH]2)cc1OC | 2.69 µM | 8.21 µM | 3.97 µM | 26.4 µM | 3.03 µM | 10 µM | 5.76 µM | 19.3 µM | 3.4 µM | 11.2 µM | 2.44 µM | 7.39 µM | 4.1 µM | 14.8 µM | 2.53 µM | 7.61 µM | 3.49 µM | 56.5 µM | 1.27 µM | 6.48 µM
16 | O=C1/C(=C/c2ccc(Cl)cc2)CN(C(=O)CCN2CCC(=NO)CC2)C/C1=C\c1ccc(Cl)cc1 | 1.27 µM | 6.43 µM | 1.94 µM | 4.21 µM | 0.631 µM | 1.76 µM | 1.57 µM | 2.96 µM | 1.35 µM | 2.75 µM | 0.637 µM | 1.89 µM | 0.585 µM | 1.72 µM | 0.942 µM | 2.98 µM | 0.557 µM | 1.56 µM | 0.114 µM | –
17 | CCCCCCCCCCCCCCCC(=O)OCC1OC(OC)C(NC(=O)N(CCCl)N=O)C(O)C1O (stereo unspecified) | – | 63.9 µM | – | 63 µM | – | 31.3 µM | – | > 85.4 µM | – | 39.7 µM | – | 35.5 µM | – | 15 µM | – | 37.4 µM | – | 57.2 µM | – | > 60.9 µM
18 | Oc1ccc(Oc2cnc3cc(Cl)ccc3n2)cc1 | 35.5 µM | > 100 µM | > 100 µM | > 100 µM | 23.8 µM | 97.3 µM | 76 µM | > 100 µM | 55.4 µM | > 100 µM | 24.5 µM | > 100 µM | 40.9 µM | > 100 µM | 14.8 µM | > 100 µM | 36.3 µM | > 100 µM | 22 µM | 68.4 µM
19 | C=C(C)[C@@H]1CC[C@]2(C(=O)O)CC[C@]3(C)[C@H](CC[C@@H]4[C@@]5(C)C/C(=C/c6cccc(I)c6)C(=O)C(C)(C)[C@@H]5CC[C@]43C)[C@@H]12 | 2.51 µM | 8.75 µM | 3.27 µM | 11.9 µM | 2.98 µM | 9.74 µM | 3.09 µM | 10.1 µM | 2.64 µM | 10.1 µM | 2.83 µM | 10 µM | 1.82 µM | 4.16 µM | 3.17 µM | 15.1 µM | 2.62 µM | 11 µM | 2.71 µM | 12.5 µM
20 | C[C@@H](Oc1cc(-n2cnc3ccc(OCC4CCN(C)CC4)cc32)sc1C(N)=O)c1ccccc1Cl | 0.0759 µM | 0.502 µM | 0.101 µM | 2.93 µM | 0.0126 µM | 0.0643 µM | 0.165 µM | 4.62 µM | 0.674 µM | 4.81 µM | 0.0924 µM | 2.15 µM | 0.0957 µM | 4.07 µM | 0.112 µM | 4.07 µM | 0.368 µM | 5.04 µM | 0.0448 µM | 0.697 µM
21 | O=C1/C(=C/c2ccc(Cl)cc2)CCC1CN1CCOCC1 (stereo unspecified) | – | > 100 µM | – | 31.9 µM | – | 14.3 µM | – | 21.5 µM | – | 42.3 µM | – | 11.2 µM | – | 15.8 µM | – | 45.9 µM | – | 24.8 µM | – | 5.29 µM
22 | CN(C)CC1CCCCCC(Br)C1=O (stereo unspecified) | – | 61.5 µM | – | > 100 µM | – | 34.1 µM | – | 34 µM | – | > 53.9 µM | – | 30.9 µM | – | 44 µM | – | > 66.1 µM | – | 19.6 µM | – | 7.14 µM
